These results are taken from ChEMBL document CHEMBL3991601, “The target landscape of clinical kinase drugs” (Science, 2017).

Calls of active or inactive are those of the source. Cut-off read from the data, not from the text of the source, for most assays here: actives have a measured Kd and inactives only a lower limit.

In assay [1] the target is GTP-binding nuclear protein Ran (Homo sapiens, UniProt P62826).
Assay [2] has as its target Tyrosine-protein kinase ABL1 (Homo sapiens, UniProt P00519).
Assay [3] concerns the target Maternal embryonic leucine zipper kinase (Homo sapiens, UniProt Q14680).
Assay [4] deals with 26S proteasome regulatory subunit 6B (Homo sapiens, UniProt P43686).
The target of assay [5] is Calcium/calmodulin-dependent protein kinase type II subunit delta (Homo sapiens, UniProt Q13557).
The target of assay [6] is T1, Ferrochelatase, mitochondrial (Homo sapiens, UniProt P22830).
T1 sequence (P22830 whole entry): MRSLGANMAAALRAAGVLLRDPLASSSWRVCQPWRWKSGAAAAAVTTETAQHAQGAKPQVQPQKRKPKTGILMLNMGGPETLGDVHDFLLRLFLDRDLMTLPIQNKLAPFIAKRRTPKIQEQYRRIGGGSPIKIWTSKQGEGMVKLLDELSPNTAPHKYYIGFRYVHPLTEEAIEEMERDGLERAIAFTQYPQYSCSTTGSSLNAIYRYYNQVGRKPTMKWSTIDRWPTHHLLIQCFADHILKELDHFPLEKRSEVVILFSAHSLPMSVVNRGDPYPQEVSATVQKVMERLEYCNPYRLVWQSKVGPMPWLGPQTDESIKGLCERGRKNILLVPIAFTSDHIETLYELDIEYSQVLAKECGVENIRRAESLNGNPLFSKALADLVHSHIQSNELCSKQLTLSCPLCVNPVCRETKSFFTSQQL

For assay [7], the target named is Tyrosine-protein kinase JAK1 (Homo sapiens, UniProt P23458).
The target of assay [8] is Ribosomal protein S6 kinase alpha-1 (Homo sapiens, UniProt Q15418).
Assay [9] has as its target Guanine nucleotide-binding protein G(i) subunit alpha-2 (Homo sapiens, UniProt P04899).
The target in assay [10] is Actin-related protein 2 (Homo sapiens, UniProt P61160).
The target in assay [11] is Aurora kinase B (Homo sapiens, UniProt Q96GD4).
The target in assay [12] is Serine/threonine-protein kinase MRCK beta (Homo sapiens, UniProt Q9Y5S2).
For assay [13], the target named is LIM domain kinase 2 (Homo sapiens, UniProt P53671).
Assay [14] deals with AP2-associated protein kinase 1 (Homo sapiens, UniProt Q2M2I8).
Assay [15] concerns the target Serine/threonine-protein kinase N1 (Homo sapiens, UniProt Q16512).
For assay [16], the target named is G protein-coupled receptor kinase 6 (Homo sapiens, UniProt P43250).
The target in assay [17] is T2, Serine/threonine-protein kinase PLK4 (Homo sapiens, UniProt O00444).
T2 sequence (O00444 whole entry): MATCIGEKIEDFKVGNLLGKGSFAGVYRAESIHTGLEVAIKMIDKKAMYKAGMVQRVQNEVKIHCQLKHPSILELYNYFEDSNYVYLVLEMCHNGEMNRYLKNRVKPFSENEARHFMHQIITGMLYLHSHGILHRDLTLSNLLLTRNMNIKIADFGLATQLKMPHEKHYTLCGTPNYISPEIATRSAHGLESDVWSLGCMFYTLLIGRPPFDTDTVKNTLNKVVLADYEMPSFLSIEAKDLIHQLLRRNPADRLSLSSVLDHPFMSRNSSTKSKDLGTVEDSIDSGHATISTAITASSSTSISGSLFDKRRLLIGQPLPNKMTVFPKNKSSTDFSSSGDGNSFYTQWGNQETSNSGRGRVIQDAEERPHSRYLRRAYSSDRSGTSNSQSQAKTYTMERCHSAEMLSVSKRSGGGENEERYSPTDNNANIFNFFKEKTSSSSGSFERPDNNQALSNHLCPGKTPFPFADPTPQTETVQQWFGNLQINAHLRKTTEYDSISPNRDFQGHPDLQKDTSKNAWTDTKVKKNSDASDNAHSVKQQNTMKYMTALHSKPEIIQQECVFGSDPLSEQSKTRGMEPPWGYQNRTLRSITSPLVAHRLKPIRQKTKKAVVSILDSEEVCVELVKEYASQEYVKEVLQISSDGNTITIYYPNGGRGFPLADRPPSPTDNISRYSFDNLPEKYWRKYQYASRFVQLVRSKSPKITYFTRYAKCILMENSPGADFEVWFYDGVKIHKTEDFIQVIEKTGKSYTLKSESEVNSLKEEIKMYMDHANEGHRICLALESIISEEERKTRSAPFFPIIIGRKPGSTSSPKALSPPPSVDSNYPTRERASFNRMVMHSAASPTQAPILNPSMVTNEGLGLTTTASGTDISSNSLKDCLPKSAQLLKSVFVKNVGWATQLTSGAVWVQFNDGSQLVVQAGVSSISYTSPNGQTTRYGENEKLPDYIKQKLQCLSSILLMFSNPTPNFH

For assay [18], the target named is Mitogen-activated protein kinase 8 (Homo sapiens, UniProt P45983).
Note: in the data inactive means no Kd found up to 30 µM.

Sequence of Aurora kinase B (Q96GD4 whole entry): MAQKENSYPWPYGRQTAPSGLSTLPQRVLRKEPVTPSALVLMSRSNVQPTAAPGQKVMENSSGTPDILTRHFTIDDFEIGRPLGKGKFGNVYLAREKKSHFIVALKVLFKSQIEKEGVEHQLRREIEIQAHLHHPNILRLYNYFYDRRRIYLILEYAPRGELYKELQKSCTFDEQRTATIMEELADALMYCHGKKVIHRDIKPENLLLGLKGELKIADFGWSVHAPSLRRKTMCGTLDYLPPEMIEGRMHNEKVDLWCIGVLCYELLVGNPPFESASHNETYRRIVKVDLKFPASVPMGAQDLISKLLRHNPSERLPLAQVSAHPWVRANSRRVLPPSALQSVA
Sequence of Mitogen-activated protein kinase 8 (P45983 whole entry): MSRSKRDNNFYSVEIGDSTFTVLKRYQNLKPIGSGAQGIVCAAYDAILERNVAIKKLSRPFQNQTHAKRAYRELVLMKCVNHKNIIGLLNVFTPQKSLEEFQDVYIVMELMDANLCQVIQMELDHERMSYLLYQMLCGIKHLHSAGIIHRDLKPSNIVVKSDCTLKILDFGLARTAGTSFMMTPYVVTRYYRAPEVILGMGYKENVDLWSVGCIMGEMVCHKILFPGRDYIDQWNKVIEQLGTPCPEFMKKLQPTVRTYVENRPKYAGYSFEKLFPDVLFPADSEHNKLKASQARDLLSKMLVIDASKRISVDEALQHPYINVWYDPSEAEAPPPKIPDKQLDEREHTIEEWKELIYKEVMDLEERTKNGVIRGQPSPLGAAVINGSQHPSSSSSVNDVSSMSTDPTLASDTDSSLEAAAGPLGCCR
Sequence of G protein-coupled receptor kinase 6 (P43250 whole entry): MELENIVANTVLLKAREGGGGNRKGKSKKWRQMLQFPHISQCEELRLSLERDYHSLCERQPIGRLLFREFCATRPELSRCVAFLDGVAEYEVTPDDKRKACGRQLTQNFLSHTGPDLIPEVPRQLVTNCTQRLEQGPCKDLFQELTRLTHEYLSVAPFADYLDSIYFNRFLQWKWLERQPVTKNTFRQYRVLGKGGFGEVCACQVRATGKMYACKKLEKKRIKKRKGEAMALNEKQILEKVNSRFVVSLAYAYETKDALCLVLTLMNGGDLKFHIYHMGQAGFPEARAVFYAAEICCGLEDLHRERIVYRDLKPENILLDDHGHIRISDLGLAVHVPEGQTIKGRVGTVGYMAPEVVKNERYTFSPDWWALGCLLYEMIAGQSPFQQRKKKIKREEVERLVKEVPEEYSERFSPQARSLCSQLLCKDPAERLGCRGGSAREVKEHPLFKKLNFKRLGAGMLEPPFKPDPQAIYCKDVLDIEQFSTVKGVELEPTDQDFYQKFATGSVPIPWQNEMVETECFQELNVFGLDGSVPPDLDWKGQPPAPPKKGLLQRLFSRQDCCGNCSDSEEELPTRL
Sequence of Tyrosine-protein kinase JAK1 (P23458 whole entry): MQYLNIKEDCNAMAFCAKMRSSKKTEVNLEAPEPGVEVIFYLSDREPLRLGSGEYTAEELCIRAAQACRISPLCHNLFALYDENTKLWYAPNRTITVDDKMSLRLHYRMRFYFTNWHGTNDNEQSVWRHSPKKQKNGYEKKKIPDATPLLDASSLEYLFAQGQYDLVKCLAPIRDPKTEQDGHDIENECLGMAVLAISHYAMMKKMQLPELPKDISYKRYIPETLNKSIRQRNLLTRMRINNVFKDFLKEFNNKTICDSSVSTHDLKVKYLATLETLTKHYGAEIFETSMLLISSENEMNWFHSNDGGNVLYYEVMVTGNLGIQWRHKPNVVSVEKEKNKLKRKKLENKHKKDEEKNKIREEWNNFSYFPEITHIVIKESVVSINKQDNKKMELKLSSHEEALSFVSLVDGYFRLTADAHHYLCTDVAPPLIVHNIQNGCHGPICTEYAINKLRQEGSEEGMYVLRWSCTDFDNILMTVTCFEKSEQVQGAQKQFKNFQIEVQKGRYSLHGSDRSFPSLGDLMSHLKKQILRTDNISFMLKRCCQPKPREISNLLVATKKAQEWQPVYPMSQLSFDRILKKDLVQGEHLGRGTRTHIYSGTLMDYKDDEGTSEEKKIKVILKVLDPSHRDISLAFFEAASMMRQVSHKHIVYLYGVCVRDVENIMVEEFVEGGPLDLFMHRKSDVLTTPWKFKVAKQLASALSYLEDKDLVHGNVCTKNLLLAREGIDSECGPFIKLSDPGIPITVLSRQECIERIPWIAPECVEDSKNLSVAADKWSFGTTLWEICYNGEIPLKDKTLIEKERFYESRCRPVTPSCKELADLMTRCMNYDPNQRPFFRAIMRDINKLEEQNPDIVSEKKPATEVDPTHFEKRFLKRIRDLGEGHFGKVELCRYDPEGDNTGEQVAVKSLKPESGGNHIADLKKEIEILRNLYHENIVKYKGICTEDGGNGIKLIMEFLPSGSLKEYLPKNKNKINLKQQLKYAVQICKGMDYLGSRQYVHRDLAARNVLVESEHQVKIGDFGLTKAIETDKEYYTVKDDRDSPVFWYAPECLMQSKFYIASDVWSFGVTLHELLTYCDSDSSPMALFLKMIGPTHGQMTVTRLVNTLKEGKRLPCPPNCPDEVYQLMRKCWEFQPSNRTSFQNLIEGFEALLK
Sequence of Ribosomal protein S6 kinase alpha-1 (Q15418 whole entry): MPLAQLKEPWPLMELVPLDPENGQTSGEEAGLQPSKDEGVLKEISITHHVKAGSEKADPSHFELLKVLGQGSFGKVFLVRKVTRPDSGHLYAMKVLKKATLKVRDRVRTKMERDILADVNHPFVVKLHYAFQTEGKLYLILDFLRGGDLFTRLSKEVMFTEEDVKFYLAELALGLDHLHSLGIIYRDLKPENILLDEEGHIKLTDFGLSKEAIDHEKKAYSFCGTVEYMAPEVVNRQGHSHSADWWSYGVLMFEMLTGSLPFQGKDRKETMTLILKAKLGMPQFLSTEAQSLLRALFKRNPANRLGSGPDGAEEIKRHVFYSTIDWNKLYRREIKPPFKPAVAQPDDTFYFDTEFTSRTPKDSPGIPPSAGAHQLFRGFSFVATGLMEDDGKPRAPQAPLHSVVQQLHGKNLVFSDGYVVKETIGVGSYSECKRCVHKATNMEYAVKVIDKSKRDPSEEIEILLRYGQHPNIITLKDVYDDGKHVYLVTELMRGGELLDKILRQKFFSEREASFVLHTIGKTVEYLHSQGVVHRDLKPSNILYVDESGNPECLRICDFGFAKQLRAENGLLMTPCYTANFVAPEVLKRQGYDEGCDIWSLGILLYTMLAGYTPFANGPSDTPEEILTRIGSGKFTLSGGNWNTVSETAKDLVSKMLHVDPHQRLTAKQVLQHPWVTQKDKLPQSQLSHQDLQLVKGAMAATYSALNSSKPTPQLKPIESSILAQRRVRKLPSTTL
Sequence of Calcium/calmodulin-dependent protein kinase type II subunit delta (Q13557 whole entry): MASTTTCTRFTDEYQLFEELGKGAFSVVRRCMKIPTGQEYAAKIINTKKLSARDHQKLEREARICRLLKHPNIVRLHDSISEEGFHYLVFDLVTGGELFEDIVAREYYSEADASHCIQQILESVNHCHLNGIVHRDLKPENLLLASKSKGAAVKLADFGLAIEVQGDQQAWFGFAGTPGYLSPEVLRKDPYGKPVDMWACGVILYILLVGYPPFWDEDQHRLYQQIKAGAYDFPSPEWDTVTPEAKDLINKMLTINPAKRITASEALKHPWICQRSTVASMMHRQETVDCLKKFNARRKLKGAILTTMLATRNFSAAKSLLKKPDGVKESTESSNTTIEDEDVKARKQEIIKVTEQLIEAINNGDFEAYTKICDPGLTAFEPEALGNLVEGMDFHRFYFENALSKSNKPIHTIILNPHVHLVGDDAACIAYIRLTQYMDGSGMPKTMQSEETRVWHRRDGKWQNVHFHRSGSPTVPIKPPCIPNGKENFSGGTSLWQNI
Sequence of LIM domain kinase 2 (P53671 whole entry, the tested form may be a part): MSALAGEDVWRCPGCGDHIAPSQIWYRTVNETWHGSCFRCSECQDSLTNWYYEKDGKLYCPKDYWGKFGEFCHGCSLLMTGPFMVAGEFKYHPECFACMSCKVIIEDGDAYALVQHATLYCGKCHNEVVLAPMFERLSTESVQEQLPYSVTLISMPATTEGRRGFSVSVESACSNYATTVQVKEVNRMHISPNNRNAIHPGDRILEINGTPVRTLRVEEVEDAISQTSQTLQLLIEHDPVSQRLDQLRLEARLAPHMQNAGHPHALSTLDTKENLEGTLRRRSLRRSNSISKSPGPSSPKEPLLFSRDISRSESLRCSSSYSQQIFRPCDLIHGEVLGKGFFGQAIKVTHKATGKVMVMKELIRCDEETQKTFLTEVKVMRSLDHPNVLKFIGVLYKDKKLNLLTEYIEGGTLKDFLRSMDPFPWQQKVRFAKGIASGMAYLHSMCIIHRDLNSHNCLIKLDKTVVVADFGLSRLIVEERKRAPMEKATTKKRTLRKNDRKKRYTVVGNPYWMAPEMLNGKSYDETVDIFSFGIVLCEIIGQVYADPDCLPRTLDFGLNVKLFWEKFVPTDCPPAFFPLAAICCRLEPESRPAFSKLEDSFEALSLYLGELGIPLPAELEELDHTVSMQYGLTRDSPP
Sequence of Maternal embryonic leucine zipper kinase (Q14680 whole entry): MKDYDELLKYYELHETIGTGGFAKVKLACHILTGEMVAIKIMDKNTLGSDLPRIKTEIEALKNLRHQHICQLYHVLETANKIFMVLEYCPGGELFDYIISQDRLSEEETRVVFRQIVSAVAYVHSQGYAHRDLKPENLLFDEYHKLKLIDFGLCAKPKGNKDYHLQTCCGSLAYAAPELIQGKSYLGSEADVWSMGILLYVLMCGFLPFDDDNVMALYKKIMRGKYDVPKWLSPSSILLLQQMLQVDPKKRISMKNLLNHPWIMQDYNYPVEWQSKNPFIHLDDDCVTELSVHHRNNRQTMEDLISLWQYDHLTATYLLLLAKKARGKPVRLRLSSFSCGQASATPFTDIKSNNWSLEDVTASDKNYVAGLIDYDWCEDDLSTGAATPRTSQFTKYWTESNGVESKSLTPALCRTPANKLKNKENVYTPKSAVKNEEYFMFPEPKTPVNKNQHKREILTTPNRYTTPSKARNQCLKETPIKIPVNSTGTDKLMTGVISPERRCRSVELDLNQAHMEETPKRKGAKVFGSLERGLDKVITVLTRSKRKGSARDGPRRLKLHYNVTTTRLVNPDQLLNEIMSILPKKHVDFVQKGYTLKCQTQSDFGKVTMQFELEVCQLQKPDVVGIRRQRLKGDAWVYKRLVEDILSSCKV

The term Kd denotes the equilibrium constant for the complex coming apart. As to `COc1cc2ncnc(Oc3cccc(NC(=O)Nc4cc(C(C)(C)C(F)(F)F)on4)c3)c2cc1OC` [CEP-32496], the Kd in [1] was > 30 µM (inactive); in assay [2], 0.05 µM (active); in assay [3] it was > 30 µM (inactive); in assay [4], > 30 µM (inactive); in assay [5], > 30 µM (inactive); in assay [6], > 30 µM (inactive). Besides, the Kd in assay [7], in [8], in [9], in [10], in [11] and in assay [12] was > 30 µM (inactive) in each case. The Kd is > 30 µM (inactive) in [13]; > 30 µM (inactive) in assay [14]; > 30 µM (inactive) in assay [15]; > 30 µM (inactive) in assay [16]; > 30 µM (inactive) in assay [17]; 1.47 µM (active) in assay [18].
As to `Cc1cc(Nc2ncc(Cl)c(Nc3ccccc3S(=O)(=O)C(C)C)n2)c(OC(C)C)cc1C1CCNCC1` [CERITINIB], the Kd in assay [1], in assay [2], in assay [3], in [4], in assay [5] and in [6] was > 30 µM (inactive) throughout. Further, the Kd in assay [7] is > 30 µM (inactive); in assay [8] it was 21.4 µM (active); in assay [9], > 30 µM (inactive); in [10], > 30 µM (inactive); in assay [11], > 30 µM (inactive); in assay [12], > 30 µM (inactive). For the same compound, the Kd in [13] was > 30 µM (inactive); in assay [14], > 30 µM (inactive); in [15], > 30 µM (inactive); in assay [16], > 30 µM (inactive); in assay [17], 7.1 µM (active); in assay [18] it was > 30 µM (inactive).
As for `COc1c(OCCCN2CCOCC2)ccc2c1N=C(NC(=O)c1cnc(N)nc1)N1CCN=C21` [COPANLISIB], the Kd in assay [1], in assay [2], in assay [3], in assay [4], in assay [5] and in assay [6] was > 30 µM (inactive) in each case. For the same compound, the Kd in [7], in [8], in assay [9], in assay [10], in assay [11] and in assay [12] was > 30 µM (inactive) each time. The Kd in [13], in assay [14], in assay [15], in assay [16], in assay [17] and in [18] was > 30 µM (inactive) in each case.
On to `COCC(=O)NC/C=C/c1ccc2ncnc(Nc3ccc(Oc4ccc(C)nc4)c(C)c3)c2c1` [CP-724714], for which the Kd in assay [1] was > 30 µM (inactive); in assay [2], > 30 µM (inactive); in assay [3] it was > 30 µM (inactive); in assay [4], > 30 µM (inactive); in assay [5], > 30 µM (inactive); in assay [6], 28.6 µM (active). Also, the Kd in assay [7], in assay [8], in assay [9], in [10], in [11] and in assay [12] was > 30 µM (inactive) in each case. In addition, the Kd in [13], in assay [14], in [15], in assay [16], in assay [17] and in [18] was > 30 µM (inactive) each time.
As for `Cc1cccc(-c2nn3c(c2-c2ccnc4ccc(C(N)=O)cc24)CCC3)n1` [GALUNISERTIB], the Kd in [1], in assay [2], in [3], in assay [4], in assay [5] and in assay [6] was > 30 µM (inactive) throughout. Besides, the Kd in assay [7], in [8], in [9], in [10], in [11] and in [12] was > 30 µM (inactive) throughout. The Kd in assay [13], in assay [14], in assay [15], in assay [16], in assay [17] and in assay [18] was > 30 µM (inactive) each time.
With `COc1ccc(S(=O)(=O)N(C(C)=O)c2ccccc2/C=C/c2cc[n+]([O-])cc2)cc1` [HMN-214], the Kd in assay [1], in assay [2], in assay [3], in [4], in assay [5] and in assay [6] was > 30 µM (inactive) in each case. The Kd in assay [7], in assay [8], in [9], in assay [10], in [11] and in assay [12] was > 30 µM (inactive) throughout. The Kd in [13], in assay [14], in [15], in [16], in assay [17] and in assay [18] was > 30 µM (inactive) in each case.
Take `O=C(Nc1cc(C(F)(F)F)cc(C(F)(F)F)c1)c1cc(Cl)ccc1O` [IMD-0354]: the Kd in assay [1], in assay [2], in assay [3], in assay [4], in [5] and in assay [6] was > 30 µM (inactive) throughout. For the same compound, the Kd in assay [7], in [8], in assay [9], in [10], in assay [11] and in assay [12] was > 30 µM (inactive) throughout. The Kd in [13], in [14], in [15], in [16], in [17] and in [18] was > 30 µM (inactive) in each case.
